Laboratory results as given in publication PMC7699649 (Communications Biology, 2020).
Non-standard residues stand in square brackets, D forms with d. Residues, ends and D or L forms follow the SMILES beside them.

Tests used:
A549 = assay type: cell-based; settings: 24 h
Experimental: (§1) HeLa and HEK293 cell lines were purchased from ECACC and cultured in Eagle’s Minimum Essential Media containing glutamine, supplemented with 10% FBS and 1X non-essential amino acids. A549 and Calu-3 cell lines were purchased from ATCC. […] Cytotoxicity was measured by incubating starter cultures of cells for 24 h in a 96 well plate, gently removing the supernatant and replacing it with dilutions of peptides and controls, incubating for a further 24 h and then staining of the cells with the second-generation tetrazolium dye, XTT.

HeLa = assay type: cell-based; settings: 24 h
Experimental: as §1

Calu-3 = assay type: cell-based; settings: 24 h
Experimental: as §1

HEK293 = assay type: cell-based, human; settings: 24 h
Experimental: as §1

EMRSA-15 = experiment: 1H HR-MAS NMR metabolomics of bacterial pellets; assay type: cell-based, Staphylococcus aureus; settings: EMRSA-15 in MHB, sub-inhibitory challenge v unchallenged; fold change, 1H HR-MAS NMR of pellets
Experimental: S. aureus EMRSA-15 and P. aeruginosa RP73 were streaked on Mueller Hinton agar plates and RPMI (supplemented with 5% FBS) agar plates and incubated at 37 °C overnight or until single colonies formed. […] Cultures were incubated overnight at 37 °C without shaking and pelleted by centrifugation at 4 °C. The supernatant was removed and filtered separately for spent media analysis, the pellet was briefly washed three times with phosphate buffered saline (PBS). The pellets were frozen in liquid nitrogen and lyophilised overnight in an Alpha 1–2 LD plus freeze dryer (Martin Christ, Germany) and stored at −20 °C until required. Samples were transferred into HR-MAS inserts for use in 4 mm Bruker MAS rotor and resuspended in 30 μl of D2O containing 3-(Trimethylsilyl)propionic-2,2,3,3-D4 acid sodium salt (TMSP-2,2,3,3-D4). The removed supernatant was filtered through 0.2 μm filters and pH adjusted to within 0.3 pH units within the same sample set. The samples were supplemented with 10% D2O containing TMSP-2,2,3,3-D4 and loaded into 5.0 mm NMR tubes.
NMR spectra were collected at 600 MHz for ^1H on a Bruker Avance II spectrometer (Bruker Biospin, Coventry, UK) with a 4 mm HR-MAS probe at 310 K while spinning at 5 kHz. ^1H NMR spectra were acquired using a Carr-Purcell Meiboom-Gill pre-saturation (cpmgpr1d) pulse sequence with a spectrum width of 16.0 ppm and 9615 data points using 64 transients. Free induction decay was multiplied by an exponential function with 0.293 Hz line broadening. 2D ^1H–^1H correlation spectroscopy (COSY) and ^1H–^13C Heteronuclear Single Quantum Correlation (HSQC) experiments were performed on representative datasets using standard Bruker settings.
The spectra were Fourier transformed automatically using standard Bruker commands and manually phased and baseline corrected in Bruker TopSpin 4.0 (Bruker Biospin, Coventry, UK). Spectral pre-processing, cross-validation and multivariate analysis were carried out using the in-house programme developed by Dr Louic Vermeer and MVAPACK, an opensource Octave library for NMR metabolomic data processing and analysis. Pre-processing modifies NMR spectra and reduces the variances and influences which are not of interest and may interfere with data analysis, for example, residual water peak or noise and the TSP reference peak. Initially a principle component analysis was carried out to identify clustering spectra and potential outliers in the data, due to e.g. poor baseline. Data were then subject to probabilistic quotient normalisation before binning and alignment. Orthogonal Projections to Latent Structures Discriminant Analysis analyses were conducted to establish the quality of binary comparisons of the metabolomic data (Supplementary Table 4). […] The Mann–Whitney U test was used to compare means and associated p values were false discovery rate adjusted using the Benjamini-Hochberg method (α = 0.05). Box plots were generated using changes in normalised intensity for each metabolite and significant differences between challenges and controls were determined using a one-way ANOVA. Volcano plots and box plots were generated using in-house software developed for Jupyter Notepad using Python 3.7.0. Metabolites were assigned using the databanks: Chenomx NMR suite software (Chenomx Inc., Canada), Human Metabolome Database, BMRB, E. coli Metabolome Database and AOCS lipid library; and a comparison of chemical shifts to the literature, which was confirmed using 2D NMR spectra. Annotated spectra can be found in the supplementary materials (Supplementary Fig. 15). Metaboanalyst and KEGG were later used to identify key pathways that may be affected by these metabolites.

human red blood cells = experiment: Haemolysis assay; assay type: cell-based; settings: human red blood cells in PBS, 1 h 37 °C, OD550, relative to 0.1% Triton-X-100
Experimental: Haemolysis was tested by incubating titrations of AMPs in PBS with freshly collected human red blood cells for 1 h at 37 °C. Control wells were treated with 0.1% Triton-X-100 to ensure complete lysis, or PBS-only to represent no lysis. Samples were spun down to remove non-lysed cells and the OD550 of the supernatant was measured using a Clariostar plate reader. The percentage of haemolysis was calculated as % haemolysis = (AP − AB)/(AC − AB) × 100, where AP is the absorbance value for a known peptide concentration, AC is the absorbance of the 0.1% Triton-X-100 control, AB is the absorbance of the PBS control. Data presented are averages and standard error from three biological replicate experiments.

MCP-1 = experiment: Murine EMRSA-15 lung infection model: BAL cytokine ELISA; assay type: in vivo, C57Bl6J mice; settings: vancomycin or D-pleurocidin-KR i.v., 48 h
S. aureus USA300 = settings: 200 mg/kg vancomycin i.p.; cited from earlier work
[1] = Murine EMRSA-15 lung infection model: body weight; assay type: in vivo, C57Bl6J mice; settings: cumulative 15 or 1.5 mg/kg/48 h D-pleurocidin-KR; 600 mg/kg vancomycin; i.v.
BAL cells = experiment: Murine EMRSA-15 lung infection model: BAL total and differential cell count; assay type: in vivo, C57Bl6J mice; settings: 48 h
Experimental: Using the recently developed method[65], an overnight culture of EMRSA-15 was prepared in tryptic soy broth (TSB). EMRSA-15 was cultured in TSB overnight at 37 °C, adjusted to a starting OD600 of 0.025, and grown for additional 4 h for agar beads preparation. EMRSA-15 was embedded into agar beads by mixing the overnight culture with molten tryptic soy agar, which was then spun into warmed mineral oil. The preparation was cooled and centrifuged at 2700 × g, the remaining oil was eliminated, and the beads were washed in sterile PBS. The CFU content of the beads slurry was subsequently quantified on TSA plates and the beads slurry then diluted to 2 × 10^7 CFU/ml in sterile PBS to deliver a final dose of 1 × 10^6 CFU/mouse. Animal work was performed in accordance with the Animals (Scientific Procedures) Act of 1986 (United Kingdom) and 2012 revisions with local ethical approval of King’s College London. On day 0, male C57Bl6J mice (8–10 weeks, Charles River) were anaesthetised under Isoflurane and 50 µl inoculum of EMRSA-15 embedded in agar beads (10^6 CFU/mouse) was instilled directly into the respiratory tract via oropharyngeal dosing (o.a.). Sham control mice were inoculated with sterile PBS agar beads. […] Body weight was measured daily, and animals monitored at regular intervals for signs of pain and distress. After 48 h of pulmonary infection, animals were terminally euthanized using 25% urethane via intra-peritoneal injection. CFUs were quantified in lung homogenates. Lung homogenates were then centrifuged at 14000 rpm for 30 min at 4 °C and the supernatants were stored at −80 °C for future analysis. For BAL fluid collection and analysis (total and differential cell count), a 22-gauge catheter was inserted into the trachea and BAL was recovered by instillation of 0.5 ml of sterile PBS three times and total cells counts were performed by adding Turks stain in a 1:1 ratio. BAL fluid was then centrifuged, and supernatants were stored at −20 °C. Total levels of TNFα, IL-6, KC and MCP-1 were quantified from BAL fluid collected from all animals and measured by ELISA according to the manufacturer protocol (R&D Systems UK). Concentrations of all mediators were then normalised to total protein content of BAL fluid quantified via bicinchoninic acid total protein assays performed to manufacturers protocols (Thermofisher Scientific). […] Statistical analysis was by one-way ANOVA with Dunnett’s multiple comparisons test.

TNFα = experiment: Murine EMRSA-15 lung infection model: BAL cytokine ELISA; assay type: in vivo, C57Bl6J mice; settings: vancomycin or D-pleurocidin-KR i.v., 48 h
IL-6 = experiment: as above; assay type: in vivo, C57Bl6J mice; settings: 600 mg/kg vancomycin or D-pleurocidin-KR (also lowest dose 0.15 mg/kg) i.v., 48 h
KC = experiment: as above; assay type: in vivo, C57Bl6J mice; settings: 600 mg/kg vancomycin or the two higher D-pleurocidin-KR doses (15, 1.5 mg/kg) i.v., 48 h

Row | Structure (SMILES) | Toxicity A549 (EC50 / IC50) (A549) | Toxicity HeLa (EC50 / IC50) (HeLa) | Toxicity Calu-3 (EC50 / IC50) (Calu-3) | Toxicity HEK293 (EC50 / IC50) (HEK293) | fc 2-aminobutyrate (EMRSA-15) | fc Acetate (EMRSA-15) | fc Acetyl-Phosphocholine (1) (EMRSA-15) | fc Acetyl-Phosphocholine (2) (EMRSA-15) | fc Adenosine (EMRSA-15) | fc Alanine (EMRSA-15) | fc Aspartate (EMRSA-15) | fc Betaine (EMRSA-15) | fc Choline (EMRSA-15) | fc Citrulline (EMRSA-15) | fc Glutamate (EMRSA-15) | fc Glycerol (lipid headgroup) (1) (EMRSA-15) | fc Glycerol (lipid headgroup) (2) (EMRSA-15) | fc Glycerol (lipid headgroup) (3) (EMRSA-15) | fc Isoleucine (EMRSA-15) | fc Lactate (EMRSA-15) | further results
1 | CC(C)C[C@@H](NC(=O)[C@@H](Cc1ccc(O)cc1)NC(=O)[C@@H](Cc1c[nH]cn1)NC(=O)[C@H](NC(=O)[C@@H](CC(C)C)NC(=O)[C@@H](C)NC(=O)[C@@H](C)NC(=O)[C@@H](CCCCN)NC(=O)CNC(=O)[C@@H](C)NC(=O)[C@@H](Cc1c[nH]cn1)NC(=O)[C@@H](CCCCN)NC(=O)CNC(=O)[C@@H](C)NC(=O)[C@@H](Cc1c[nH]cn1)NC(=O)[C@@H](C)NC(=O)[C@@H](C)NC(=O)[C@@H](CCCCN)NC(=O)[C@@H](CCCCN)NC(=O)[C@@H](Cc1ccccc1)NC(=O)[C@@H](Cc1ccccc1)NC(=O)[C@@H](CO)NC(=O)CNC(=O)[C@@H](Cc1c[nH]c2ccccc12)NC(=O)CN)[C@H](C)O)C(N)=O [D-pleurocidin-VA] (H-G[dW]G[dS][dF][dF][dK][dK][dA][dA][dH][dA]G[dK][dH][dA]G[dK][dA][dA][dL][dT][dH][dY][dL]-NH2; N-terminus assumed) | (>250) µg/ml | (198.2 ± 10.2) µg/ml | (>250) µg/ml | (217.3 ± 46.5) µg/ml | 0.991 | 1.149 | 0.9923 | 1.003 | 1.125 | 0.9478 | 0.8483 | 0.9779 | 1.051 | 0.9363 | 0.896 | 0.9028 | 1.031 | 0.9777 | 1.148 | 1.293 | fc Leucine (EMRSA-15): 1.172; fc Lipid -CH=CH- (EMRSA-15): 1.134; fc Lipid-CH₃ (EMRSA-15): 1.116; fc Lysine (EMRSA-15): 1.027; fc N-acetyl-x (1) (EMRSA-15): 0.8941; fc N-acetyl-x (2) (EMRSA-15): 1.036; fc N-acetyl-x (3) (EMRSA-15): 0.9489; fc Proline (EMRSA-15): 1.056; fc Succinate (EMRSA-15): 0.8785; fc Unassigned 1.47ppm (EMRSA-15): 0.8868; fc Unassigned 3.4802ppm (EMRSA-15): 0.9293; fc Unassigned 8.55ppm (EMRSA-15): 0.9285; fc Uracil (EMRSA-15): 1.738; fc Valine (EMRSA-15): 1.029; fc ᴅ-alanine (LTA) (EMRSA-15): 1.157; haemolysis at the highest concentration tested 400 µg/ml (human red blood cells): Neither pleurocidin-VA nor D-pleurocidin-VA induce detectable haemolysis
2 | CN[C@H](CC(C)C)C(=O)N[C@H]1C(=O)N[C@@H](CC(N)=O)C(=O)N[C@H]2C(=O)N[C@H]3C(=O)N[C@H](C(=O)N[C@H](C(=O)O)c4cc(O)cc(O)c4-c4cc3ccc4O)[C@H](O)c3ccc(c(Cl)c3)Oc3cc2cc(c3O[C@@H]2O[C@H](CO)[C@@H](O)[C@H](O)[C@H]2O[C@H]2C[C@](C)(N)[C@H](O)[C@H](C)O2)Oc2ccc(cc2Cl)[C@H]1O [vancomycin, reference compound] |  |  |  |  |  |  |  |  |  |  |  |  |  |  |  |  |  |  |  |  | levels of MCP-1 in BAL (MCP-1): No effects; reduction in S. aureus USA300 CFU (S. aureus USA300): comparable reduction; weight loss over the 48-h infection period [1]: mitigates this weight loss; neutrophil recruitment (BAL) (BAL cells; 600 mg/kg vancomycin or D-pleurocidin-KR (also lowest dose 0.15 mg/kg) i.v.): reduced; macrophage numbers in BAL (BAL cells; vancomycin or D-pleurocidin-KR i.v.): No effects; levels of TNFα in BAL (TNFα): No effects; IL-6 in BAL (IL-6): reduced; KC levels in BAL (KC): fall to that of the uninfected group
3 | CC(C)C[C@@H](NC(=O)[C@@H](Cc1ccc(O)cc1)NC(=O)[C@@H](Cc1c[nH]cn1)NC(=O)[C@H](NC(=O)[C@@H](CC(C)C)NC(=O)[C@@H](C)NC(=O)[C@@H](C)NC(=O)[C@@H](CCCCN)NC(=O)CNC(=O)[C@H](NC(=O)[C@@H](Cc1c[nH]cn1)NC(=O)[C@@H](CCCCN)NC(=O)CNC(=O)[C@H](NC(=O)[C@@H](Cc1c[nH]cn1)NC(=O)[C@@H](C)NC(=O)[C@@H](C)NC(=O)[C@@H](CCCCN)NC(=O)[C@@H](CCCCN)NC(=O)[C@@H](Cc1ccccc1)NC(=O)[C@@H](Cc1ccccc1)NC(=O)[C@@H](CO)NC(=O)CNC(=O)[C@@H](Cc1c[nH]c2ccccc12)NC(=O)CN)C(C)C)C(C)C)[C@H](C)O)C(N)=O [D-pleurocidin] (H-G[dW]G[dS][dF][dF][dK][dK][dA][dA][dH][dV]G[dK][dH][dV]G[dK][dA][dA][dL][dT][dH][dY][dL]-NH2; N-terminus assumed) | (79.3 ± 7.2) µg/ml | (47.1 ± 2.1) µg/ml | (41.9 ± 1.8) µg/ml | (61.4 ± 3.9) µg/ml | 1.089 | 7.742 | 0.8504 | 0.9675 | 0.737 | 0.9988 | 0.9699 | 1.128 | 0.8079 | 0.7893 | 0.9017 | 1.108 | 0.9648 | 0.9439 | 0.8635 | 0.8326 | fc Leucine (EMRSA-15): 0.8297; fc Lipid -CH=CH- (EMRSA-15): 1.03; fc Lipid-CH₃ (EMRSA-15): 0.9623; fc Lysine (EMRSA-15): 0.8706; fc N-acetyl-x (1) (EMRSA-15): 1.103; fc N-acetyl-x (2) (EMRSA-15): 1.06; fc N-acetyl-x (3) (EMRSA-15): 0.8909; fc Proline (EMRSA-15): 0.991; fc Succinate (EMRSA-15): 0.6241; fc Unassigned 1.47ppm (EMRSA-15): 0.9642; fc Unassigned 3.4802ppm (EMRSA-15): 1.011; fc Unassigned 8.55ppm (EMRSA-15): 5.383; fc Uracil (EMRSA-15): 0.4342; fc Valine (EMRSA-15): 0.8108; fc ᴅ-alanine (LTA) (EMRSA-15): 1.199; concentration at which 10% haemolysis is achieved (human red blood cells; three biological replicates): 240 µg/mL
